Test results as given in US20050137220A1 (Pharmacia Corporation, priority 2003, published 2005).
Counter-ions that a name gives are not always drawn. Like-named read-outs stand apart in the source and are kept apart here.

How the values were obtained:
MK-2 = MK-2 (Homo sapiens, UniProt P49137); assay: Determination of MK-2 IC50 (phosphorylation of HSP-peptide, anion exchange resin capture assay); type: biochemical; settings: additional values are replicate IC50 experiments; mixture of stereoisomers implied unless otherwise noted; read-out: MK-2 Avg. IC50
Sequence of MK-2 (P49137 whole entry, species assumed): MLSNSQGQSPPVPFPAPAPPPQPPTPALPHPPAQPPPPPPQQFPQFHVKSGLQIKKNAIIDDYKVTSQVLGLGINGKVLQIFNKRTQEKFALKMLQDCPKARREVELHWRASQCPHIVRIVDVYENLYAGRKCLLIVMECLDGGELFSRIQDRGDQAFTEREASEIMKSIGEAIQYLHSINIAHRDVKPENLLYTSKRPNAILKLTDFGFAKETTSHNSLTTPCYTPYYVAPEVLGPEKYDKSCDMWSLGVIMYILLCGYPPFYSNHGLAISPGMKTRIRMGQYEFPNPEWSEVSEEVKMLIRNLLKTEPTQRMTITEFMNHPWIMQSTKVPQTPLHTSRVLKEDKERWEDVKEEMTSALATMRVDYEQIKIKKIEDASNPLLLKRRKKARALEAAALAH

U937 cells = assay: U937 Cell TNFα Release Assay; type: cell-based, human; settings: Homo sapiens, mixture of stereoisomers implied unless otherwise noted
p38 [1] = settings: murine model of endotoxin-induced shock; cited from earlier work
p38 [2] = settings: mouse collagen-induced arthritis; cited from earlier work
p38 [3] = settings: rat adjuvant arthritis; cited from earlier work
[4] = U-937, 4 h, LPS-stimulated differentiated U937 cells, TNFα by ELISA, read-out: TNF Release Assay Avg. IC50
[5] = U-937, LPS-stimulated differentiated U937 cells, TNFα by ELISA, read-out: TNF Release Assay Avg. IC50

SMILES | IC50 (MK-2) | IC50 (U937 cells; [4]) | further results
COC(=O)C1c2[nH]c3ccc(OCc4ccccc4)cc3c2CCN1C (stereo not drawn) [Example 176, methyl 6-(benzyloxy)-2-methyl-2,3,4,9-tetrahydro-1H-beta-carboline-1-carboxylate] | > 200 µM | – | IC50 (U937 cells; U-937, 4 h, read-out: TNF Release Assay Avg. IC50, LPS-stimulated differentiated U937 cells, TNFα by ELISA): 36.4 µM
CCCC1CNC(C(=O)OC)c2[nH]c3ccc(OC)cc3c21 (stereo not drawn) [Example 188, methyl 6-methoxy-4-propyl-2,3,4,9-tetrahydro-1H-beta-carboline-1-carboxylate] | > 200 µM | 13.3 µM | –
COC(=O)C1NCC(C)c2c1[nH]c1ccc(OC)cc21 (stereo not drawn) [Example 189, methyl 6-methoxy-4-methyl-2,3,4,9-tetrahydro-1H-beta-carboline-1-carboxylate] | > 200 µM | 53.2 µM | –
CCn1c2c(c3cc(OC)ccc31)CCNC2C(=O)OC (stereo not drawn) [Example 208, methyl 9-ethyl-6-methoxy-2,3,4,9-tetrahydro-1H-beta-carboline-1-carboxylate trifluoroacetate] | > 200 µM | 100 µM | –
COc1ccc2[nH]c3c(=O)n(/N=C/c4ccccc4)c(=O)[nH]c3c2c1 [Example 265, 8-methoxy-3-{[(1E)-phenylmethylidene]amino}-1H-pyrimido[5,4-b]indole-2,4(3H,5H)-dione] | > 200 µM | – | IC50 (U937 cells; [5]): > 100 µM
C[S+]([O-])c1ccc(-c2nc(-c3ccncc3)c(-c3ccc(F)cc3)[nH]2)cc1 (stereo not shown) [SB203580] | – | – | mortality (p38 [1]): reduce mortality; development of arthritis (p38 [2]): inhibit the development; development of arthritis (p38 [3]): inhibit the development

Continued, in another order:

IC50 (MK-2) | IC50 (U937 cells; [4]) | SMILES | further results
> 200 µM | > 100 µM | O=C(O)C1c2[nH]c3ccccc3c2CCN1C(=O)c1ccc(Cl)cc1 (stereo not drawn) [Example 202, 2-(4-chlorobenzeyl)-2,3,4,9-tetrahydro-1H-beta-carboline-1-carboxylic acid] | –
> 200 µM | 88.9 µM | COC(=O)C1NCCc2c1n(C)c1ccc(OC)cc21 (stereo not drawn) [Example 209, methyl 6-methoxy-9-methyl-2,3,4,9-tetrahydro-1H-beta-carboline-1-carboxylate trifluoroacetate] | –
> 200 µM | – | COc1ccc2[nH]c3c(=O)n(N)c(=O)[nH]c3c2c1 [Example 266, 3-amino-8-methoxy-1H-pyrimido[5,4-b]indole-2,4(3H,5H)-dione] | IC50 (U937 cells; [5]): > 100 µM
